Read-outs that look alike come from different tables or passages of the source.
Experiments:
[1] = biological target: T1, OX2R (Mus musculus, UniProt P58308); details: cited from earlier work
T1 construct: host or cells: mice (WT, orexin-deficient, orexin-neuron ablated)
T1 sequence (P58308 1-460): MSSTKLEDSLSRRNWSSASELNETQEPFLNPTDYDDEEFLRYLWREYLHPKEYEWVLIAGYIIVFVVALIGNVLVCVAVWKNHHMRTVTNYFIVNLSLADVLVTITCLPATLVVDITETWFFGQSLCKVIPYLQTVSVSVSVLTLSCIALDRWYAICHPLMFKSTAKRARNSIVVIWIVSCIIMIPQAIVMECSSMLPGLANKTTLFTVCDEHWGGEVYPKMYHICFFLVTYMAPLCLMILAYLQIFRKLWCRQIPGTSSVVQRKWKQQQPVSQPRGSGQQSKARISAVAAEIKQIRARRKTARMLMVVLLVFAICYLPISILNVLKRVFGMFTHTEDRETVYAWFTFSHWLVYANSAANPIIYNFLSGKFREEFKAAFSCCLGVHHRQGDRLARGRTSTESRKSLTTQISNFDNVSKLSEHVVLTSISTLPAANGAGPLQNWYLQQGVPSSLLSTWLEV

[2] = biological target: T2, OX2R (Homo sapiens, UniProt O43614); details: individuals with NT1; initial clinical studies; cited from earlier work
T2 construct: host or cells: individuals with NT1
T2 sequence (O43614 1-444): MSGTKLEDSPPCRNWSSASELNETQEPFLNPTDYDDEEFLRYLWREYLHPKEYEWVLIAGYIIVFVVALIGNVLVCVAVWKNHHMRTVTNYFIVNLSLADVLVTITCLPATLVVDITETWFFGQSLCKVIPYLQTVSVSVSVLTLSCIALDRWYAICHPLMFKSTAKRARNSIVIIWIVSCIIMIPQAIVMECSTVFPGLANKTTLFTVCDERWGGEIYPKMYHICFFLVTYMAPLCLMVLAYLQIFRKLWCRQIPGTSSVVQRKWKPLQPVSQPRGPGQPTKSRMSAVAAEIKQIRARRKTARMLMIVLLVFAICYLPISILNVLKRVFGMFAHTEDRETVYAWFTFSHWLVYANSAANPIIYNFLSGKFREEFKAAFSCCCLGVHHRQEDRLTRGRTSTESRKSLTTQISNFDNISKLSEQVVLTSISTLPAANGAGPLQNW

[3] = biological target: T3, human orexin type 2 receptor (hOX2R) (Homo sapiens, UniProt O43614); test: cell-based;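 also: agonist activity in CHO cells stably expressing hOX2R, intracellular Ca2+ via Calcium 5 dye fluorescence area over 2 min, buffer-only as 0% and 10 nM orexin A as 100%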
T3 sequence (O43614 1-444): T2 sequence (O43614 1-444)
Protocol: Measurement of orexin type 2 receptor agonist activity. […] After removal of the medium, 50 μl of assay buffer 1 (0.1% bovine serum albumin (Sigma Aldrich), 20 mM HEPES (Molecular Dimensions), 250 mM probenecid (Sigma Aldrich), 1× Calcium 5 dye (Molecular Devices) in Hank's balanced salt solution (Invitrogen)) was added, and the cells were incubated for 60 min under the conditions of 37° C., 5% CO2. A test compound was dissolved in dimethyl sulfoxide (Sigma Aldrich) to 10 mM, and then diluted with assay buffer 2 (20 mM HEPES, Hank's balanced salt solution, 0.1% bovine serum albumin). For the reaction, a test compound solution (10 μl) was added using Fluorescent Imaging Plate Reader TETRA (FLIPR TETRA: manufactured by Molecular Devices), a fluorescence value (excitation wavelength 488 nm, measurement wavelength 570 nm) of each well was measured every one second for 2 min, and the agonist activity was determined using the area of the fluorescence value as an indicator of intracellular Ca^2+ concentration. The agonist activity of the test compound was calculated assuming that the fluorescence value of the well added with only the dilution buffer was 0% and the fluorescence value of the well added with 10 nM human orexin A (Tocris) buffer was 100%.

EC50 [3]	SMILES	further results
	COC(=O)N1CCC[C@H](NS(C)(=O)=O)[C@@H]1CO[C@H]1CC[C@@H](c2ccccc2)CC1 [TAK-925]	wakefulness ([1]; subcutaneous administration, WT mice): modestly increased wakefulness; cataplexy [2]: trends for decreasing cataplexy; wakefulness [2]: substantial levels of increased wakefulness
	COc1ccc(-c2cccc(C(=O)N(C)C)c2)cc1S(=O)(=O)Nc1cccc(NCCNC(=O)c2ccccc2N(C)C)c1 [YNT-185]	sleep-onset REM periods and cataplexy-like events ([1]; intraperitoneally or ICV, NT1 mouse model): decrease sleep-onset REM periods and cataplexy-like events; wakefulness ([1]; intraperitoneally or ICV, wild type (WT) and orexin ligand-deficient mice): modestly increases wakefulness
0.0631 to 1 nM	C[C@H](CF)NC(=O)N1CC2(CC2)[C@H](NS(=O)(=O)C2(F)CC2)[C@@H]1Cc1cccc(-c2ccccc2)c1F [compound 86, (6S,7S)-6-((2-fluoro-[1,1′-biphenyl]-3-yl)methyl)-7-((1-fluorocyclopropane)-1-sulfonamido)-N-((R)-1-fluoropropan-2-yl)-5-azaspiro[2.4]heptane-5-carboxamide]	
1 to 10 nM	O=C([C@H]1CCO1)N1CC2(CC2)[C@H](NS(=O)(=O)C2(F)CC2)[C@@H]1Cc1cc(F)cc(-c2ccccc2)c1F [compound 87, N-((6S,7S)-6-((2,5-difluoro-[1,1′-biphenyl]-3-yl)methyl)-5-((R)-oxetane-2-carbonyl)-5-azaspiro[2.4]heptan-7-yl)-1-fluorocyclopropane-1-sulfonamide]	
1 to 10 nM	C[C@@H](NC(=O)N1CC2(CC2)[C@H](NS(=O)(=O)CF)[C@@H]1Cc1cc(F)cc(-c2ccccc2)c1F)C(F)F [compound 88, (6S,7S)-6-((2,5-difluoro-[1,1′-biphenyl]-3-yl)methyl)-N-((R)-1,1-difluoropropan-2-yl)-7-((fluoromethyl)sulfonamido)-5-azaspiro[2.4]heptane-5-carboxamide]	
1 to 10 nM	N#C[C@]1(C(=O)N2CC3(CC3)[C@H](NS(=O)(=O)CF)[C@@H]2Cc2cc(F)cc(-c3ccccc3)c2F)C[C@H](F)C1 [compound 89, N-((6S,7S)-5-((1r,3S)-1-cyano-3-fluorocyclobutane-1-carbonyl)-6-((2,5-difluoro-[1,1′-biphenyl]-3-yl)methyl)-5-azaspiro[2.4]heptan-7-yl)-1-fluoromethanesulfonamide]	
1 to 10 nM	N#C[C@]1(C(=O)N2CC3(CC3)[C@H](NS(=O)(=O)CF)[C@@H]2Cc2cc(F)cc(-c3ccccc3)c2F)C[C@@H](F)C1 [compound 90, N-((6S,7S)-5-((1s,3R)-1-cyano-3-fluorocyclobutane-1-carbonyl)-6-((2,5-difluoro-[1,1′-biphenyl]-3-yl)methyl)-5-azaspiro[2.4]heptan-7-yl)-1-fluoromethanesulfonamide]	
0.0631 to 1 nM	C[C@](O)(CF)C(=O)N1CC2(CC2)[C@H](NS(=O)(=O)C2(F)CC2)[C@@H]1Cc1cccc(-c2ccccc2)c1F [compound 91, 1-fluoro-N-((6S,7S)-5-((R)-3-fluoro-2-hydroxy-2-methylpropanoyl)-6-((2-fluoro-[1,1′-biphenyl]-3-yl)methyl)-5-azaspiro[2.4]heptan-7-yl)cyclopropane-1-sulfonamide]	

From US20250100968A1, “BICYCLIC-HETEROCYCLE DERIVATIVES AND RELATED USES” (CENTESSA PHARMACEUTICALS (UK) LIMITED, priority 2022, published 2025)
